From patent US20180320177A1, “COMPOSITIONS AND METHODS FOR THE TREATMENT OF LIVER FIBROSIS” (UNIVERSITY OF CONNECTICUT, priority 2015, published 2018)
Entries after “also recorded” stand apart in the source; their conditions may differ.

Assays:
HMGB2 protein = molecular target: T1, HMGB2 protein (Mus musculus, UniProt P30681); test: Western blot of HMGB2 protein in liver of CCl4-treated mice; assay type: in vivo
T1 construct: Total protein lysates were prepared from livers and cells in lysis buffer; from tissue; host or cells: mouse liver (C57BL/6J, CCl4 with or without ICM)
T1 sequence (P30681 1-210): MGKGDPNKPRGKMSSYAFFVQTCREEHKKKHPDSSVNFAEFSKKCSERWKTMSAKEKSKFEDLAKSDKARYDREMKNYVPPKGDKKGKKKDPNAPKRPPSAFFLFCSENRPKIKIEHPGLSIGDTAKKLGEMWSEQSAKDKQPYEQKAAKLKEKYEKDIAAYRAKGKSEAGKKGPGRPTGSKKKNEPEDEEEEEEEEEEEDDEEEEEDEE
Experimental: Animal Care: All animal care and experimental procedures were approved by the Institutional Animal Care and Use Committee at the University of Connecticut. Shp^−/− mice were described previously. Hmgb2^−/− mice were obtained from Dr. Stella Tsirka at Stony Brook University. C57BL/6J mice were purchased from Jackson Laboratory. All mice were maintained on a 12-h light/dark cycle with free access to food and water unless otherwise indicated. For CCl4 treatment, CCl4 (Sigma) was dissolved in corn oil and administered to mice at a dose of 850 μl/kg BW by intraperitoneal injection (IP) twice a week for 6 or 10 weeks with or without ICM. Age-matched control mice were treated with a corn oil vehicle. For CCl4+ICM treatment, mice were treated with CCl4 for 2 weeks and then ICM (Department of Pharmaceutical Sciences at UConn) was dissolved in PEG (Sigma) and treated with mice (10 mg/kg) every day for 4 or 8 weeks in combination with CCl4. To induce overexpression of HMGB2 in liver, AAV8-Hmgb2 or a control AAV8-GFP was given to mice by tail vein injection at a dose of 5×10^10 GC. To knockdown HMGB2 in mouse livers, AAV-shHmgb2 or a control AAV-shGFP was delivered to mice at a dose of 2×10^10 GC by tail vein injection. One week later, mice injected with AAVs were treated with CCl4 or CCl4 +ICM as described above and sacrificed. […]

HMGB2 = molecular target: T2, HMGB2 (Homo sapiens, UniProt P26583); test: Co-immunoprecipitation of acetylated / phosphorylated HMGB2 in LX-2 cells; assay type: cell-based; parameters: Total protein lysates were prepared from livers and cells in lysis buffer; endogenous in cells; host or cells: LX-2; details: CCl4 and ICM for 24 hours (FIG. 5D)
T2 sequence (P26583 1-209): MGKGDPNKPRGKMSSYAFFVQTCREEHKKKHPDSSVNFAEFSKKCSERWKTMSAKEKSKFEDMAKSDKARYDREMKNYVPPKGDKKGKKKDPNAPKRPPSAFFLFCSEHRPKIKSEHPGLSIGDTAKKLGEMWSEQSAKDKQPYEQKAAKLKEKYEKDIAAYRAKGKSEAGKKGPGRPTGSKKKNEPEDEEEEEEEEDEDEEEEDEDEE
Experimental: Co-immunoprecipitation experiments: LX-2 cells were transfected with a vector expressing HA-CBP with X-treineGENE™ transfection reagent (Sigma). 24 hours later, cells were treated with CCl4 and ICM for 24 hours. Cells then washed 2 times with cold phosphate buffered saline (PBS), lysed in buffer (50 mM Tris HCl, pH 7.4, 150 mM NaCl, 1 mM EDTA, and 1% TRITON X-1.00, and protease inhibitor). Protein extracts were incubated with anti-phosphoserin antibody or anti-acetylated lysin antibody (Cell signaling technology) overnight at 4° C. Protein A/G beads were added to the supernatants and incubated for 4 hours at 4° C. The beads were washed five times in NP-40 lysis buffer. Immune complexes were eluted by SDS—sample buffer, resolved on 10% SDS-PAGE and proceeded for immunoblotting with the indicated antibody.

Compound: CC1(C)Oc2cc(O)ccc2C2C1=CCn1c(=O)n(-c3ccccc3)c(=O)n12 (stereo not shown) [ICM, inflachromene]
- liver HMGB2 protein induced by CCl4 (HMGB2 protein; CCl4 mice treated with ICM, Western blot): decreases; also recorded: blocked by ICM; also recorded: reduction in liver HMGB2 protein
- selectivity HMGB2 protein versus HMGB1 protein (HMGB2 protein; mouse liver, CCl4+ICM (FIG. 16)): more selective to downregulate HMGB2 protein
- HMGB2 phosphorylation by CCl4 (HMGB2): decreases
- HMGB2 acetylation by CBP/CCl4 (HMGB2; HA-CBP): decreases
